# Laboratory results reported in paper PMC7576608, “Mechanisms of telomerase inhibition by oxidized and therapeutic dNTPs” (Nature Communications, 2020).
# Tested on: telomerase
# Assay: Direct telomerase assay in the absence or presence of POT1-TPP1 (processivity R1/2)
# Format: biochemical, human
# Settings: 2-OH-dATP replaced dATP
# Excerpt: Next we tested whether the telomerase processivity factor POT1–TPP1 modulates modified dNTP inhibition of telomerase. POT1 binds to the telomeric ssDNA overhang, requiring the minimum sequence of 5′-[…]-3′[38]. Inclusion of POT1-binding partner TPP1, increases the binding affinity for telomeric DNA ten-fold compared to POT1 alone. POT1–TPP1 recruits telomerase to telomeres in vivo[39], and greatly increases telomerase repeat processivity. Therefore, we reasoned that POT1–TPP1 may overcome inhibition by the modified dNTPs and enhance telomerase processivity. We conducted telomerase extension reactions with radiolabeled primer in the presence of POT1–TPP1, and used a primer with a single mutation ([…]; underlined G to C mutation)[40] to ensure POT1–TPP1 is positioned at the 5′ portion of the primer (Fig. 5). This provides a homogenous substrate for telomerase extension.
# For these reactions, we replaced the natural dNTP with the modified dNTP analog, while the other dNTPs remained at cellular relevant concentrations.
# Direct telomerase assays were conducted in the absence or presence of 500 nM POT1 and 500 nM TPP1, as indicated, and 5 nM ^32P-end labeled primer ([…]) designed to position POT1 at the 10 nt primer 5′ end. Reactions contained cellular-concentration dNTPs (lanes 1 and 2), except when the natural dNTP was substituted with the oxidized dNTP a or therapeutic dNTP b analog (lanes 3–8), as indicated. […] Letters on the right indicate template base; P indicates unextended 18-mer primer. c Processivity was calculated on the basis of total products normalized to loading control. Images are representative of, and data are shown as mean ± s.d. from 3 to 5 independent experiments. Source data are provided as a Source Data file.
# The reactions were started by the addition of 3 μl of immunopurified telomerase eluent, incubated at 37 °C for 1 h, then terminated with 2 μl of […] and heat inactivated at 65 °C for 20 min. An equal volume of loading buffer (94% formamide, 0.1× TBE, 0.1% bromophenol blue, 0.1% xylene cyanol) was added to the reaction eluent. The samples were heat denatured for 10 min at 100 °C and loaded onto a 14% denaturing acrylamide gel (7 M urea, 1× TBE) and electrophoresed for 90 min at constant 38 W. Samples were imaged using a Typhoon phosphorimager (GE Healthcare). Percent primer extension was calculated with ImageQuant TL 8.2 by measuring the intensity of each product band and dividing by the total radioactivity in the lane or total products, as indicated in the figure legends.
# The processivity was calculated as described[40],[67]. Repeat processivity from the direct telomerase extension assays was calculated as R1/2 (equivalent to the half-time for decay in an exponential time course), which represents the median length of DNA product formed, expressed in terms of number of telomere repeats. First, the total volume counts for each product band extend by one or more telomere repeats were obtained using Image Quant TL. The volume counts were then normalized by dividing by the number of radiolabeled guanosines incorporated into the extended products based on the number of repeats added, termed corrected volume (corr vol). The “percent left behind” (%LB) was calculated for each product band by summing the counts for that product band and for every product band below (shorter products), divided by the total counts for the lane, and then multiplied by 100. The natural log of (100−%LB) was calculated and then plotted vs. repeat number for each product length. A linear regression line was fit to the data to determine the slope of the line.
row,SMILES,Fold enhancement of repeat processivity by POT1-TPP1 [fold]
1,Nc1nc(O)nc2c1ncn2C1CC(O)C(COP(=O)(O)OP(=O)(O)OP(=O)(O)O)O1 (stereo not drawn) [2-OH-dATP],5

# Same assay, conditions: analog substituted for its natural dNTP
row,SMILES,Effect of POT1-TPP1 on telomerase in presence of analog (in words)
1,Nc1nc2c(ncn2C2CC(O)C(COP(=O)(O)OP(=O)(O)OP(=O)(O)O)O2)c(=S)[nH]1 (stereo not drawn) [6-thio-dGTP],failed to stimulate telomerase
2,Nc1ncnc2c1[nH]c(=O)n2C1CC(O)C(COP(=O)(O)OP(=O)(O)OP(=O)(O)O)O1 (stereo not drawn) [8-oxo-dATP],some POT1–TPP1 stimulation
3,Nc1nc2c([nH]c(=O)n2C2CC(O)C(COP(=O)(O)OP(=O)(O)OP(=O)(O)O)O2)c(=O)[nH]1 (stereo not drawn) [8-oxo-dGTP],unable to overcome the chain termination
4,Cc1cn([C@H]2C[C@H](N=[N+]=[N-])[C@@H](CO[P@](=O)(O)O[P@](=O)(O)OP(=O)(O)O)O2)c(=O)[nH]c1=O [AZT-TP],failed to stimulate telomerase processivity
5,O=c1[nH]cnc2c1ncn2C1CCC(COP(=O)(O)OP(=O)(O)OP(=O)(O)O)O1 (stereo not drawn) [ddITP],failed to stimulate telomerase processivity
